Patent US6355669B1, “Retinoic acid agonists as preventive and therapeutic agents for nephritis” (Eisai Co., Ltd., priority 1997, dated 2002)

Experiments:
mouse B lymphocytes [1] = settings: adding RARα antagonist; Apfel 1992; cited from earlier work
[2] = system: BALB/c mouse spleen cells; assay: In vitro production of antibody (total IgG) in LPS-stimulated mouse spleen cells; format: cell-based; settings: for Total IgG: LPS 5 μg/ml, 5 days
Description: Spleen cells from 7-week-old female BALB/c mouse were cultured at 37° C. in the presence of 5% CO2 for 5 days along with 5 μg/ml lipopolysaccharide (LPS) in RPMI 1640 medium containing 10% fetal bovine serum. After culture, the total amount of IgG in the supernatant was quantified by specific ELISA techniques.

[3] = system: mouse allergic cerebrospinal meningitis; settings: Racke et al., J. Immunol., 154, 450-458, 1995; cited from earlier work
[4] = system: albuminuria in (NZB×NZW)F1 mice; assay: Mouse model with spontaneous onset of SLE: urine protein / onset of albuminuria; format: in vivo, female (NZB×NZW) F1 mice; settings: dose 0.03 mg/kg
Source text: (§1) In this experiment, female (NZB×NZW) F1 mice were used. Administration of each test compound was initiated at the age of 16 weeks, and blood was collected at predetermined intervals from the orbital venous plexus of the animals under anesthesia with ether and examined for anti-DNA (single-stranded chain: ss, double stranded chain: ds) antibody titer in serum. Further, urine was collected and measured for urine protein.
The test compounds A, B and D were suspended in 0.5% aqueous methyl cellulose solution and orally administered daily once into the animals for 6 days/week for 18 weeks. The medium was administered into the control group.
The effect of each compound on the onset of albuminuria after 18 weeks of administration (in 34-week-old animals) is shown in Table 2.

anti-ss DNA antibody = assay: Mouse model with spontaneous onset of SLE: production of anti-ss DNA antibody; format: in vivo, female (NZB×NZW) F1 mice; settings: 0.03 mg/kg oral; after 16 weeks of administration
Description: as §1
(§2) The medium was administered into the control group.

[5] = system: accelerated Masugi nephritis; assay: Rat model with accelerated Masugi nephritis (proteins excreted in urine for 24 hours); format: in vivo, Sprague-Dawley strain rats; settings: dose 0.3 mg/kg, oral once every day; compared with the control group; 0.3 mg/kg
Description: Sprague-Dawley strain rats were immunized by subcutaneously administering rabbit γ-globulin in a dose of 4 mg/rat along with Freund's complete adjuvant into the bottoms of their both hind legs. On the 5th day after the rats were immunized, 1 ml of anti-rat glomerular basement membrane rabbit serum diluted 6- or 8-fold was administered via tail veins into the animals. On the 8th day, the rats were forced to be orally administered 8 ml sterilized water and then placed in a metabolism cage, and their urine was collected for 24 hours during which the animals were allowed neither food nor water. As the indicator of the model with accelerated Masugi nephritis, the amount of proteins excreted in urine for 24 hours was used.
as §2

anti-ds DNA antibody = assay: Mouse model with spontaneous onset of SLE: production of anti-ds DNA antibody; format: in vivo, female (NZB×NZW) F1 mice; settings: 0.03 mg/kg oral; after 16 weeks of administration
Description: as §1, §2

[6] = system: anti-rabbit γ-globulin IgG2a antibody titer; assay: Rat model producing antibody (anti-rabbit γ-globulin antibody titer in serum, ELISA); format: in vivo, Sprague-Dawley strain rats; settings: dose 0.3 mg/kg oral once every day for 14 days; 14th day after immunization
Description: Sprague-Dawley strain rats were immunized by subcutaneously administering rabbit γ-globulin in a dose of 4 mg/rat along with Freund's complete adjuvant into the bottoms of their both hind legs. On the 14th day after the rats were immunized, blood was collected from their tail veins and examined for anti-rabbit γ-globulin antibody titer in serum by the ELISA method.
The test compounds A, B, C and D were suspended respectively in 0.5% aqueous methyl cellulose solution and orally administered once every day for 14 days from the day on which the animals were immunized with rabbit γ-globulin. The medium was administered into the control group.

rat adjuvant arthritis = settings: Brinckerhoff et al., Science 221, 756, 1983; cited from earlier work
[7] = system: anti-collagen antibody titer; settings: rat model with collagen arthritis; Kuwabara et al., FEBS Letters 1996; cited from earlier work
human B lymphocytes = settings: literature reports (Apfel 1992; Blomhoff 1992; Fahlman 1995); cited from earlier work
mouse B lymphocytes [8] = settings: literature reports (Apfel 1992; Blomhoff 1992; Fahlman 1995); cited from earlier work
[9] = after 18 weeks of administration (34-week-old), 8 animals

SMILES: CCCCCCCOc1cc2c(cc1/C(C)=C/c1ccc(C(=O)O)cc1)C(C)(C)CCS2(=O)=O [Ro-41-5253]
- recovery of the inhibitory action of retinoic acid on differentiation of mouse B lymphocytes (mouse B lymphocytes [1]): recovered almost perfectly
- Total IgG ([2]; Ro-41-5253 20 nM, all-trans retinoic acid 0 nM): 29.2 ng/mL
- Total IgG ([2]; Ro-41-5253 200 nM, all-trans retinoic acid 0 nM): 30.2 ng/mL
- Total IgG ([2]; Ro-41-5253 2000 nM, all-trans retinoic acid 0 nM): 18.0 ng/mL
- recovery of the inhibitory action of all-trans-retinoic acid on antibody production (in words) ([2]; adding 200 nM and 2000 nM Ro-41-5253): completely recovered

SMILES: CC1=C(/C=C/C(C)=C/C=C/C(C)=C/C(=O)Nc2ccc(O)cc2)C(C)(C)CCC1
- neural symptoms of mouse allergic cerebrospinal meningitis [3]: ameliorated

SMILES: Cc1ccc(C)c2oc(-c3ccc(-c4ccc(C(=O)O)cc4)[nH]3)cc12 [Compound A, 4-{2-[5-(4,7-dimethylbenzofuran-2-yl)pyrrolyl]}benzoic acid]
- onset of albuminuria (in words) ([4]; after 18 weeks of administration): inhibited
- Number of animals with Concentration of Urine Protein (mg/ml) <0.3 [4, 9]: 6
- Number of animals with Concentration of Urine Protein (mg/ml) >0.3 [4, 9]: 0
- Number of animals with Concentration of Urine Protein (mg/ml) >1 [4, 9]: 1
- Number of animals with Concentration of Urine Protein (mg/ml) >3 [4, 9]: 1
- Number of animals with Concentration of Urine Protein (mg/ml) >10 [4, 9]: 0
- inhibition of production of anti-ss DNA antibody (in words) (anti-ss DNA antibody): significant inhibition
- Degree of Inhibition of Albuminuria (%) [5]: 69.2%
- inhibition of production of anti-ds DNA antibody (in words) (anti-ds DNA antibody): significant inhibition
- effect on anti-rabbit γ-globulin IgG2a antibody titer [6]: showed a tendency to inhibit

SMILES: CC1=C(/C=C/C(C)=C/C=C/C(C)=C\C(=O)O)C(C)(C)CCC1 [13-cis-retinoic acid]
- secondary inflammations in rat adjuvant arthritis (rat adjuvant arthritis): significantly suppressed
- neural symptoms of mouse allergic cerebrospinal meningitis [3]: ameliorated

SMILES: CC1(C)CCC(C)(C)c2cc(NC(=O)c3ccc(C(=O)O)cc3)ccc21 [Am80]
- production of anti-collagen antibody titer in blood [7]: strongly inhibited

SMILES: CC1=C(/C=C/C(C)=C/C=C/C(C)=C/C(=O)O)C(C)(C)CCC1 [All-trans retinoic acid, all-trans-retinoic acid]
- polyclonal division of human B lymphocytes (human B lymphocytes): inhibits
- in vitro production of antibody in mice (in words) ([2]; 0.1 and 1 nM all-trans-retinoic acid): inhibited
- Total IgG ([2]; all-trans retinoic acid 0.1 nM with Ro-41-5253 20 nM): 9.8 ng/mL
- Total IgG ([2]; all-trans retinoic acid 0.1 nM with Ro-41-5253 200 nM): 26.4 ng/mL
- Total IgG ([2]; all-trans retinoic acid 0.1 nM with Ro-41-5253 2000 nM): 23.4 ng/mL
- Total IgG ([2]; all-trans retinoic acid 0.1 nM, Ro-41-5253 0 nM): 11.3 ng/mL
- Total IgG ([2]; all-trans retinoic acid 1 nM with Ro-41-5253 20 nM): 6.4 ng/mL
- Total IgG ([2]; all-trans retinoic acid 1 nM with Ro-41-5253 200 nM): 7.2 ng/mL
- Total IgG ([2]; all-trans retinoic acid 1 nM with Ro-41-5253 2000 nM): 21.5 ng/mL
- Total IgG ([2]; all-trans retinoic acid 1 nM, Ro-41-5253 0 nM): 7.3 ng/mL
- polyclonal division of mouse B lymphocytes (mouse B lymphocytes [8]): inhibits
